Data reported in patent publication US5863950A, “HIV protease inhibitors” (Agouron Pharmaceuticals, Inc., priority 1994, dated 1999).
Converted amounts (≈) assume the structure as drawn. Read-outs that look alike come from different tables or passages of the source.

What was measured:
HIV = assay: antiviral assay (enantiomer comparison, cell line not given); type: cell-based; details: enantiomers compared with each other
HIV-1 (CEM cells) = assay: Anti-HIV MTT assay, inhibition of HIV-induced cell killing, CEM cells; type: cell-based, HIV-1 isolates IIIB and/or RF; details: Human immunodeficiency virus 1, CCRF-CEM, 144 h, CEM cell line (first position), 6 days, 37° C., read-out: Viral CEM
Source text: (§1) SRI has an established program for the primary antiviral analysis of compounds in microtiter assays which measure the ability of a selected compound to inhibit HIV-induced cell killing. This assay involves the conversion of the tetrazolium dye MTT to a colored formazan product by mitochondrial enzymes in metabolically active cells. This assay system is presently used at SRI to screen over 30,000 compounds per year. Briefly, the assay involves the infection of CEM or MT2 cells in round bottom 96-well plates. The compound of interest is added just prior to infection. Following 6 days of incubation at 37° C. the plates are stained with MTT. The results of the assay are quantitated spectrophotometrically on a Molecular Devices Vmax plate reader. The data is analyzed by linear regression utilizing an in-house software program to calculate antiviral activity. (IC25, IC50, IC95) and toxicity (TC25, TC50, TC95) as well as other values.
(§2) Primary antiviral assays are routinely performed in CEM or MT-2 cells.
(§3) Drugs will be solubilized in the appropriate vehicle such as distilled water or DMSO if necessary. Latex gloves, lab coats and masks are used during all phases of the handling process to prevent exposure to potentially harmful agents. The drug is prepared at the appropriate concentration and stored at -20° C. until used by the screening laboratory. The first dilution of each compound is made in a dilution tube with medium to yield a concentration two-fold that of the highest test concentration. Sterile titer tubes are then used to make serial one half-log dilutions of each compound. Following drug dilution, the diluted compound is added to the appropriate well of a 96-well microtiter plate. Up to 12 dilutions can be assayed conveniently in triplicate on a single plate with all appropriate controls including cell control, virus control, toxicity control, drug color control, medium control and plastic (background) control. When testing includes only six dilutions, two drugs can be assayed on a single microtiter plate. The drugs are added to the plate in a final volume of 100 microliters.
(§4) During the time the drug dilutions are prepared, cells are washed and counted. Viability is monitored by trypan blue dye exclusion and assays are not performed if the viability falls below 90%. Cells are maintained in an exponential growth phase and are split 1:2 on the day prior to assay to assure exponential growth rate.
(§5) For the primary screen, the cell lines utilized are CEM and MT-2. Unless otherwise indicated, the medium used is RPMI 1640 with 10% heat-inactivated fetal calf serum (FBS), glutamine and antibiotics.
(§6) Cells are propagated at 37° C. in an atmosphere of 5% CO2 in air. The virus employed for this work is HIV-1 isolates IIIB and/or RF, which are prepared by an acute infection process.
(§7) Briefly, virus-infected cells are pelleted on a daily basis beginning at three days post-infection until the virus has killed all of the cells in the culture. Reverse transcriptase activity and p24 ELISA are used to identify pools with the greatest amount of virus.
(§8) These 24-hour harvests are pooled, filtered and frozen at -90° C. Prior to use in the assay, the infectious pool of virus is titered on all available cell lines in order to determine the amount of virus required in the antiviral assay.
(§9) In general, pools produced by the acute infection method require the addition of one microliter of infectious virus per well resulting in the screening of drugs at a multiplicity of infection of 0.01. In this manner enough virus is prepared and frozen to complete over one thousand microtiter plates, allowing the testing of up to two thousand compounds from a single stock of infectious virus. The use of a single stock of virus for a long period of testing has very favorable effects on the repeatability of the assay systems.
(§10) Virus infection of the CEM and MT-2 cells for the antiviral assay is carried out in a bulk infection process. […]

HIV-1 protease = target: T1, HIV-1 protease (Human immunodeficiency virus type 1 group M subtype B, UniProt P04585); assay: biochemical; type: biochemical
T1 construct: purified HIV-1 protease
Protocol: 1. Proteolytic activity of purified HIV-1 protease was routinely measured using the chromogenic assay developed by Richards et al. (J. Biol. Chem. 265: 7733 (1990)). Synthetic peptide His-Lys-Ala-Arg-Val-Leu-Phe (pNO2)-Glu-Ala-Nle-Ser-NH2 (American Peptide Company) was used as the substrate.
2. The assay was carried out in 0.5M NaCl, 50 mM MES pH 5.6, 2% DMSO (dimethylsulfoxide) at 37° C. Cleavage of the scissile bond between leucine and paranitro-phenylalanine (Phe(pNO2)) was assayed by spectrophotometric monitoring of the decrease in absorbance at 305 nm. Initial velocity was determined as the rate of decline of absorbance during the first 100 seconds of reaction.
3. […] Between 15-25 concentrations of inhibitor were added and velocity of reaction was measured at each of the concentrations, as described above.
4. Inhibition constants were calculated using the method of Jackson et al. (Adv. in Enzyme Regulation 22: 187 (1984)).

HIV-1 (MT-2 cells) = assay: Anti-HIV MTT assay, inhibition of HIV-induced cell killing, MT-2 cells; type: cell-based, HIV-1 isolates IIIB and/or RF; details: Human immunodeficiency virus 1, MT2, 144 h, read-out: Viral MT-2
Source text: as §1, §2, §3, §4, §5, §6, §7, §8, §9, §10

[1] = 0.5M NaCl, 50 mM MES pH 5.6, 2% DMSO, 37° C., 200 μM substrate
[2] = MT-2 cells (second position), 6 days, 37° C., MTT

| IC50 (HIV-1 protease; [1]) | Ki (HIV-1 protease; [1]) | IC50 (HIV-1 protease) | Ki (HIV-1 protease) | SMILES | activity in the antiviral assay (HIV) | IC50 (HIV-1 (CEM cells)) | IC50 (HIV-1 (MT-2 cells); [2]) | IC50 (HIV-1 (MT-2 cells)) |
| --- | --- | --- | --- | --- | --- | --- | --- | --- |
|  |  |  |  | CCC1(N(CCO)C(=O)c2ccccc2CC[C@H](O)Cc2ccc(C)cc2C(=O)N(CCO)C(C)(C)c2ccccc2)CCCC1 [Example 116b] | less active |  |  |  |
| 0.23 µM | 0.064 µM |  |  | CC(C)(C)N(CCO)C(=O)c1ccccc1CCC(O)Cc1ccccc1C(=O)N(CCO)C12CCCCC1CCC2 (centres unmarked) [Example 81] |  | 4.39 µg/mL (≈ 7.58 µM) | 5.58 µg/mL (≈ 9.64 µM) |  |
| 0.103 µM | 0.01 µM |  |  | CCC1(N(CCO)C(=O)c2ccccc2CCC(O)Cc2ccc(C)cc2C(=O)N(CCO)C(C)(C)c2ccc(OCCCN(CCO)CCO)cc2)CCCC1 (centres unmarked) [Example 113] |  | 1.73 µg/mL (≈ 2.19 µM) | 1.58 µg/mL (≈ 2 µM) |  |
| 0.102 µM | 0.004 µM |  |  | CCC1(N(CCO)C(=O)c2ccccc2CCC(O)Cc2ccc(C)cc2C(=O)N(CCO)C(CC)(CC)c2ccccc2)CCCC1 (centres unmarked) [Example 101] |  | 4.16 µg/mL (≈ 6.33 µM) | 1.67 µg/mL (≈ 2.54 µM) |  |
| 0.103 µM | 0.002 µM |  |  | CCC1(N(CCO)C(=O)c2ccccc2CCC(O)Cc2ccc(C)cc2C(=O)N(CCO)C(C)(C)c2ccc(OCc3cccnc3)cc2)CCCC1 (centres unmarked) [Example 98] |  | 0.48 µg/mL (≈ 0.652 µM) | 1.94 µg/mL (≈ 2.64 µM) |  |
|  |  | 1.03 µM | 0.835 µM | CC(C)(C)N(CCO)C(=O)c1ccccc1CCC(O)Cc1ccccc1C(=O)N(CCO)C(C)(C)C (centres unmarked) [Example 1] |  | 18.6 µg/mL (≈ 36.3 µM) | 23 µg/mL (≈ 44.9 µM) |  |
| 1.23 µM | 1.01 µM |  |  | CC(C)(C)N(CCO)C(=O)c1ccccc1CCC(O)Cc1ccccc1C(=O)N(CCO)C(C)(C)c1ccncc1 (centres unmarked) [Example 77] |  | 7.57 µg/mL (≈ 13.1 µM) | 16.4 µg/mL (≈ 28.5 µM) |  |
| 0.108 µM | 0.0098 µM |  |  | CCC1(N(CCO)C(=O)c2ccccc2CCC(O)Cc2ccc(C)cc2C(=O)N(CCO)C(C)(C)c2ccc(OCCN3CCOCC3)cc2)CCCC1 (centres unmarked) [Example 108] |  | 0.64 µg/mL (≈ 0.844 µM) | 0.56 µg/mL (≈ 0.739 µM) |  |
| 0.326 µM | 0.1 µM |  |  | CC(C)(C)N(CCO)C(=O)c1ccccc1CCC(O)Cc1ccccc1C(=O)N(Cc1ncc[nH]1)C(C)(C)c1ccccc1 (centres unmarked) [Example 72] |  | 5.54 µg/mL (≈ 9.07 µM) | 17.9 µg/mL (≈ 29.3 µM) |  |
|  |  |  |  | CCC1(N(CCO)C(=O)c2ccccc2CC[C@@H](O)Cc2ccc(C)cc2C(=O)N(CCO)C(C)(C)c2ccccc2)CCCC1 [Example 116a] | more active |  |  |  |
| 0.133 µM | 0.0023 µM |  |  | CCC1(N(CCO)C(=O)c2ccccc2CCC(O)Cc2ccc(C)cc2C(=O)N(CC2COC(C)(C)OC2)C(C)(C)c2ccccc2)CCCC1 (centres unmarked) [Example 102] |  | 0.42 µg/mL (≈ 0.589 µM) | 0.47 µg/mL (≈ 0.659 µM) |  |
| 0.169 µM | 0.152 µM |  |  | Cc1ccc(CCC(O)Cc2ccccc2C(=O)N(CCO)C(C)(C)c2ccccc2)c(C(=O)N(CCO)C(C)(C)C)c1 (centres unmarked) [Example 62] |  | 2.86 µg/mL (≈ 4.86 µM) | 4.98 µg/mL (≈ 8.46 µM) |  |
| 2.5 µM | 0.735 µM |  |  | CC(C)(C)N(CCO)C(=O)c1ccccc1CCC(O)Cc1ccccc1C(=O)N(CCOc1ccncc1)C(C)(C)c1ccccc1 (centres unmarked) [Example 83] |  | > 100 µg/mL | > 100 µg/mL |  |
| 0.104 µM | 0.017 µM |  |  | CCC1(N(CCO)C(=O)c2ccccc2CCC(O)Cc2ccccc2C(=O)N(CCO)C(C)(C)c2ccccc2)CCCC1 (centres unmarked) [Example 82] |  | 0.75 µg/mL (≈ 1.22 µM) | 0.64 µg/mL (≈ 1.04 µM) |  |
| 0.351 µM | 0.315 µM |  |  | Cc1ccc(CCC(O)Cc2ccccc2C(=O)N(CCOCc2ccccc2)C(C)(C)c2ccccc2)c(C(=O)N(CCO)C(C)(C)C)c1 (centres unmarked) [Example 84] |  | > 100 µg/mL | > 100 µg/mL |  |
| 0.141 µM | 0.00055 µM |  |  | CCC1(N(CCO)C(=O)c2ccccc2CCC(O)Cc2ccc(C)cc2C(=O)N(CCO)C2(c3ccccc3)CCCC2)CCCC1 (centres unmarked) [Example 94] |  | 0.52 µg/mL (≈ 0.794 µM) | 1.47 µg/mL (≈ 2.24 µM) |  |

| SMILES | IC50 (HIV-1 protease; [1]) | Ki (HIV-1 protease; [1]) | IC50 (HIV-1 protease) | Ki (HIV-1 protease) | activity in the antiviral assay (HIV) | IC50 (HIV-1 (CEM cells)) | IC50 (HIV-1 (MT-2 cells); [2]) | IC50 (HIV-1 (MT-2 cells)) |
| --- | --- | --- | --- | --- | --- | --- | --- | --- |
| CCCC(CC)(CC)N(CCO)C(=O)c1cc(C)ccc1CC(O)CCc1ccccc1C(=O)N(CCO)C1(CC)CCCC1 (centres unmarked) [Example 109] | 0.059 µM | 0.0136 µM |  |  |  | 0.79 µg/mL (≈ 1.27 µM) |  | 0.59 µg/mL (≈ 0.947 µM) |
